Assays:
Assay type in all cases: biochemical
[1] = target: ADAMTS-4 recombinant protein (Homo sapiens (Human), UniProt O75173); assay: In vitro fluorescence (FRET-peptide) enzymatic assay of ADAMTS-4 activity; settings: FRET peptide substrate 15 μM, 10 nM enzyme, 37° C. 3 hours
Protocol: (§1) A FRET (fluorescence resonance energy transfer) peptide was cleaved by recombinant ADAMTS-4 or ADAMTS-5 proteins into two separate fragments resulting in an increase of fluorescence signal which was quantified. The peptide was 5-FAM-[…](5-TAMRA)K-NH2, customized from ANASPEC. ADAMTS-4 recombinant protein (catalog #4307-AD) and ADAMTS-5 recombinant protein (catalog #2198-AD) were purchased from R&D Systems.
(§2) An assay buffer containing 50 mM HEPES pH 7.5, 100 mM NaCl, 5 mM CaCl2, 0.1% CHAPS and 5% Glycerol was prepared. A volume of 2.5 μl of compound in the assay buffer was dispensed to a 384-well plate, and 2.5 μl of ADAMTS-4 or ADAMTS-5 protein (final concentration in the reaction was 10 nM) was added. The compounds and proteins were pre-incubated at room temperature for 15 minutes. Then, 5 μl of substrate was added to each well. The final substrate concentrations for ADAMTS-4 and ADAMTS-5 were 15 μM and 8 μM, respectively. The fluorescence signal in each well was determined, after incubation at 37° C. for 3 hours, on a TECAN plate reader (Excitation, 490 nm; Emission, 520 nm).
(§3) The data was inputted into GraphPad Prism, and the IC50 values were calculated using function “log (inhibitor) vs. response—Variable slope (four parameters)”. (See Table 1)

[2] = target: T1, ADAMTS-5 recombinant protein (Homo sapiens (Human), UniProt Q9UNA0); assay: In vitro fluorescence (FRET-peptide) enzymatic assay of ADAMTS-5 activity; settings: FRET peptide substrate 8 μM, 10 nM enzyme, 37° C. 3 hours
T1 sequence (Q9UNA0 262-622): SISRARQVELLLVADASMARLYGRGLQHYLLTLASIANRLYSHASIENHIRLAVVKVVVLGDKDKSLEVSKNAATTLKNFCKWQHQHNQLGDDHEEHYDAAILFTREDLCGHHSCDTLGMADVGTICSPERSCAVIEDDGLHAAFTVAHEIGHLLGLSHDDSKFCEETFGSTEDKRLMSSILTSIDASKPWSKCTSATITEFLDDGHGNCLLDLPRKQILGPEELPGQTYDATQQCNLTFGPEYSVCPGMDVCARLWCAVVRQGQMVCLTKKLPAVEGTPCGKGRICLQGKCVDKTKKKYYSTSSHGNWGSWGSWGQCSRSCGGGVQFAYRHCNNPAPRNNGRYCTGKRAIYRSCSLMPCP
Protocol: as §1, §2, §3

[3] = target: T1, ADAMTS-5 recombinant protein; assay: In vitro ELISA of ADAMTS-5 activity (Aggrecan-IGD enzymatic assay); settings: aggrecan-IGD substrate, ARGSVIL-peptide ELISA, 37° C. 45 minutes
Protocol: In this assay, the enzymatic activity of recombinant ADAMTS-5 protein (catalog #2198-AD, R&D Systems) was assayed with a protein substrate, the aggrecan IGD protein. The aggrecan IGD protein is a polypeptide connecting human aggrecan globular domains 1 and 2 (T331-G458) expressed in E. Coli with a C-terminal His-tag (catalog #30411000, BIOTEZ). The enzymatic product ARGSVIL-peptide was detected using an ELISA kit from BioTEZ (catalog #30510111).
An assay buffer containing 50 mM HEPES pH 7.5, 100 mM NaCl, 5 mM CaCl2), 0.1% CHAPS and 5% Glycerol was prepared. Recombinant ADAMTS-5 protein was diluted to 0.3 nM in the assay buffer. Ten μl of […] and 10 μl of compound solution was transferred to each well of a 96-well plate and incubated at room temperature for 15 minutes. Substrate aggrecan-IGD was diluted to 100 nM with the assay buffer and 20 μl was added to each well. The plate was incubated at 37° C. for 45 minutes. After incubation, the newly generated epitope ARGSVIL-peptides were measured using the Aggrecanase Activity ELISA Assay Kit following the manufacturer's instructions. Then, 100 μl of stop solution was added and the absorbance of each well was read at 450 nm, using […] as reference on a TECAN plate reader.
A standard curve of the ELISA assay was generated in GraphPad Prism using Sigmoidal 4PL function and the corresponding peptide concentrations were calculated based on the standard curve. The IC50 values were calculated using function “log (inhibitor) vs. response—Variable slope (four parameters)”. (See Table 2).

Chain of ADAMTS-4 recombinant protein (O75173 213-685): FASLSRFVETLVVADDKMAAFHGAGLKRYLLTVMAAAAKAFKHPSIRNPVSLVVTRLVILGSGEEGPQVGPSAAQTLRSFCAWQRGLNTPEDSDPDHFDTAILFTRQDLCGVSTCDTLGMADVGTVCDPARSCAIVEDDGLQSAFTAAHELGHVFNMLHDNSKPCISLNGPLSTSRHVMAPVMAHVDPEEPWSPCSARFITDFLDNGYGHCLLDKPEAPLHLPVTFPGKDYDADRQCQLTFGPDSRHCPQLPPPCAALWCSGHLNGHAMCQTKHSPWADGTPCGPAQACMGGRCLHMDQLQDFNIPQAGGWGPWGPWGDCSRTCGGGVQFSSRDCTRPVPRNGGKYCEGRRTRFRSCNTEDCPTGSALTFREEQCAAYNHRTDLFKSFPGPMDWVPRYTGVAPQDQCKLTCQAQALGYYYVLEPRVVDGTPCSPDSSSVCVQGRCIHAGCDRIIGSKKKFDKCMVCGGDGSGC

Compound | IC50 [1] [nM] | IC50 [2] [nM] | IC50 [3] [nM]
O=C1NC(=O)[C@](CCC(=O)N2Cc3ccc(Cl)cc3C2)(C2CC2)N1 [Example 2, (S)-5-(3-(5-chloroisoindolin-2-yl)-3-oxopropyl)-5-cyclopropylimidazolidine-2,4-dione] | 91 | 190 | 860
O=C1NC(=O)C(CCC(=O)N2Cc3cc(Cl)c(C(F)(F)F)cc3C2)(c2ncccn2)N1 (stereo not drawn) [Example 79, 5-(3-(5-chloro-6-(trifluoromethyl)isoindolin-2-yl)-3-oxopropyl)-5-(pyrimidin-2-yl)imidazolidine-2,4-dione] | 250 | 110 | 210
O=C1NC(=O)[C@](CCC(=O)N2Cc3ccccc3C2)(C2CC2)N1 [Example 11, (S)-5-cyclopropyl-5-(3-(isoindolin-2-yl)-3-oxopropyl)imidazolidine-2,4-dione] | 110 | 410 | 560
O=C1NC(=O)[C@](CCC(=O)N2Cc3cc(F)c(C(F)(F)F)cc3C2)(C2CC2)N1 [Example 39, (S)-5-cyclopropyl-5-(3-(5-fluoro-6-(trifluoromethyl)isoindolin-2-yl)-3-oxopropyl)imidazolidine-2,4-dione] | 110 | 62 | 65
CC1CN(C(=O)CC[C@@]2(C3CC3)NC(=O)NC2=O)CCc2ccc(Cl)c(Cl)c21 (stereo partly drawn) [Example 38, (S)-5-cyclopropyl-5-(3-(8,9-dichloro-1-methyl-1,2,4,5-tetrahydro-3H-benzo [d]azepin-3-yl)-3-oxopropyl)imidazolidine-2,4-dione] | 62 | 31 | 29
Cn1ccnc1C1(CCC(=O)N2Cc3ccc(C(F)(F)F)cc3C2)NC(=O)NC1=O (stereo not drawn) [Example 62, 5-(1-methyl-1H-imidazol-2-yl)-5-(3-oxo-3-(5-(trifluoromethyl)isoindolin-2-yl)propyl)imidazolidine-2,4-dione] | 100 | 89 | 290
Cc1cc(C2(CCC(=O)N3Cc4cc(Cl)c(C(F)(F)F)cc4C3)NC(=O)NC2=O)n[nH]1 (stereo not drawn) [Example 78, 5-(3-(5-chloro-6-(trifluoromethyl)isoindolin-2-yl)-3-oxopropyl)-5-(5-methyl-1H-pyrazol-3-yl)imidazolidine-2,4-dione] | 160 | 57 | 76
COc1ccc2c(c1)CN(C(=O)CC[C@@]1(C3CC3)NC(=O)NC1=O)C2 [Example 24, (S)-5-cyclopropyl-5-(3-(5-methoxyisoindolin-2-yl)-3-oxopropyl)imidazolidine-2,4-dione] | 120 | 360 | 840
Cc1cc(C2(CCC(=O)N3Cc4cc(Cl)c(C(F)(F)F)cc4C3)NC(=O)NC2=O)no1 (stereo not drawn) [Example 75, 5-(3-(5-chloro-6-(trifluoromethyl)isoindolin-2-yl)-3-oxopropyl)-5-(5-methylisoxazol-3-yl)imidazolidine-2,4-dione] | 120 | 75 | 110
O=C1NC(=O)[C@](CCC(=O)N2Cc3ccc(OC(F)(F)F)cc3C2)(C2CC2)N1 [Example 4, (S)-5-cyclopropyl-5-(3-oxo-3-(5-(trifluoromethoxy)isoindolin-2-yl)propyl)imidazolidine-2,4-dione] | 170 | 480 | 730
Cc1nc(C2(CCC(=O)N3Cc4cc(Cl)c(C(F)(F)F)cc4C3)NC(=O)NC2=O)co1 (stereo not drawn) [Example 81, 5-(3-(5-chloro-6-(trifluoromethyl)isoindolin-2-yl)-3-oxopropyl)-5-(2-methyloxazol-4-yl)imidazolidine-2,4-dione] | 260 | 77 | 120

Now those with a lower IC50 [1], led by results:

IC50 [1] [nM] | IC50 [2] [nM] | IC50 [3] [nM] | Compound
56 | 240 | 650 | O=C1NC(=O)[C@](CCC(=O)N2CCc3cc(C(F)(F)F)ccc3C2)(C2CC2)N1 [Example 6, (S)-5-cyclopropyl-5-(3-oxo-3-(6-(trifluoromethyl)-3,4-dihydroisoquinolin-2 (1H)-yl)propyl)imidazolidine-2,4-dione]
51 | 61 | 140 | CC1CN(C(=O)CC[C@@]2(C3CC3)NC(=O)NC2=O)CCc2ccc(F)cc21 (stereo partly drawn) [Example 22, (5S)-5-cyclopropyl-5-(3-(8-fluoro-1-methyl-1,2,4,5-tetrahydro-3H-benzo[d]azepin-3-y1)-3-oxopropyl)imidazolidine-2,4-dione]
43 | 52 | 83 | CC1c2cc(Cl)c(Cl)cc2CN1C(=O)CC[C@@]1(C2CC2)NC(=O)NC1=O (stereo partly drawn) [Example 66, (5S)-5-cyclopropyl-5-(3-(5,6-dichloro-1-methylisoindolin-2-yl)-3-oxopropyl)imidazolidine-2,4-dione]
43 | 130 | 190 | Cc1cc2c(cc1Cl)CN(C(=O)CC[C@@]1(C3CC3)NC(=O)NC1=O)C2 [Example 57, (S)-5-(3-(5-chloro-6-methylisoindolin-2-yl)-3-oxopropyl)-5-cyclopropylimidazolidine-2,4-dione]
40 | 42 | 72 | O=C1NC(=O)C(CCC(=O)N2Cc3cc(Cl)c(Cl)cc3C2)(c2ccccn2)N1 (stereo not drawn) [Example 61, 5-(3-(5,6-dichloroisoindolin-2-yl)-3-oxopropyl)-5-(pyridin-2-yl)imidazolidine-2,4-dione]
36 | 21 | 18 | CC1c2cc(C(F)(F)F)c(Cl)cc2CN1C(=O)CC[C@@]1(C2CC2)NC(=O)NC1=O (stereo partly drawn) [Example 41, (5S)-5-(3-(5-chloro-1-methyl-6-(trifluoromethyl)isoindolin-2-yl)-3-oxopropyl)-5-cyclopropylimidazolidine-2,4-dione]
21 | 15 | 36 | COc1cc2c(cc1Cl)CN(C(=O)C(C)C[C@@]1(C3CC3)NC(=O)NC1=O)C2 (stereo partly drawn) [Example 36-1, (5S)-5-(3-(5-chloro-6-methoxyisoindolin-2-yl)-2-methyl-3-oxopropyl)-5-cyclopropylimidazolidine-2,4-dione]
16 | 21 | 31 | O=C1NC(=O)C(CC(COCc2ccccc2)C(=O)N2Cc3ccc(C(F)(F)F)cc3C2)(C2CC2)N1 (stereo not drawn) [Example 65, 5-(2-((benzyloxy)methyl)-3-oxo-3-(5-(trifluoromethyl)isoindolin-2-yl)propyl)-5-cyclopropylimidazolidine-2,4-dione]
15 | 20 | 55 | CC(C)C(C[C@@]1(C2CC2)NC(=O)NC1=O)C(=O)N1Cc2ccc(C(F)(F)F)cc2C1 (stereo partly drawn) [Example 49-2, (5S)-5-cyclopropyl-5-(3-methyl-2-(5-(trifluoromethyl)isoindoline-2-carbonyl)butyl)imidazolidine-2,4-dione]
14 | 22 | 56 | CC(C[C@@]1(C2CC2)NC(=O)NC1=O)C(=O)N1Cc2ccc(C(F)(F)F)cc2C1 (stereo partly drawn) [Example 29, (5S)-5-cyclopropyl-5-(2-methyl-3-oxo-3-(5-(trifluoromethyl)isoindolin-2-yl)propyl)imidazolidine-2,4-dione]
11 | 110 | 200 | Nc1cc2c(cc1Cl)CN(C(=O)CC[C@@]1(C3CC3)NC(=O)NC1=O)C2 [Example 54, (S)-5-(3-(5-amino-6-chloroisoindolin-2-yl)-3-oxopropyl)-5-cyclopropylimidazolidine-2,4-dione]
7 | 9 | 17 | CC(C[C@@]1(C2CC2)NC(=O)NC1=O)C(=O)N1Cc2cc(Cl)c(Cl)cc2C1 (mixture of isomers) [Example 34-2, (5S)-5-cyclopropyl-5-(3-(5,6-dichloroisoindolin-2-yl)-2-methyl-3-oxopropyl)imidazolidine-2,4-dione]

— patent US20240299360A1, “ADAMTS INHIBITORS, PREPARATION METHODS AND MEDICINAL USES THEREOF” (Jiangsu Hengrui Pharmaceuticals Co., Ltd., priority 2020, published 2024)
